The test system of series [1] is Human immunodeficiency virus 1. Description: Antiviral activity against wild type HIV1 3B infected in human MT4 cells assessed as inhibition of virus-induced cytopathic effect after 5 days by MTT assay. It counts as functional, organism-based. The conditions noted are these: Human immunodeficiency virus 1, 3B, MT4, 120 h. In general terms: Damage to the host cells serves as the signal in cytopathic effect assays.

Series [2] in a line: Selectivity index, ratio of CC50 for mock-infected human MT4 cells to EC50 for HIV2 ROD infected in human MT4 cells. The conditions noted are these: read-out: Selectivity Index. It counts as toxicity, cell-based.
Series [3] in a line: Selectivity index, ratio of CC50 for mock-infected human MT4 cells to EC50 for HIV1 RES056 RES056 containing reverse transcriptase K103N + Y181C mutant infected in human MT4 cells. Type of series: toxicity, cell-based. The note with it: read-out: Selectivity Index.
In series [4] the test system is Human immunodeficiency virus 1. Description: Antiviral activity against HIV1 RES056 containing reverse transcriptase K103N + Y181C mutant infected in human MT4 cells assessed as inhibition of virus-induced cytopathic effect after 5 days by MTT assay. It counts as functional, organism-based. The conditions noted are these: Human immunodeficiency virus 1, RES056, MT4, 120 h.

The target of series [5] is Human immunodeficiency virus type 1 reverse transcriptase (Human immunodeficiency virus 1, UniProt Q72547). Description: Inhibition of recombinant wild type HIV1 reverse transcriptase assessed as reduction in biotin-dUTP incorporation using poly(A)/oligo(dT)15 as template/primer after 1 hr by ELISA. In general terms: An ELISA detects its analyte on a solid surface through an enzyme-linked reagent.

Series [6] in a line: Cytotoxicity against mock-infected human MT4 cells assessed as reduction in cell viability after 5 days by MTT assay. Type of series: cell-based. Background: Formazan colour is commonly taken as a measure of viable cells.
A short description of series [7]: Selectivity index, ratio of CC50 for mock-infected human MT4 cells to EC50 for wild type HIV1 3B infected in human MT4 cells. The note with it: read-out: Selectivity Index. It counts as toxicity, cell-based.
The subject of series [8] is Human immunodeficiency virus 2. Description: Antiviral activity against HIV2 ROD infected in human MT4 cells assessed as inhibition of virus-induced cytopathic effect after 5 days by MTT assay. The note with it: Human immunodeficiency virus 2, ISOLATE ROD, MT4, 120 h.
In series [9] the test system is Human immunodeficiency virus 1. Description: Potency index, ratio of lamivudine EC50 to compound EC50 for antiviral activity against wild type HIV1 3B infected in human MT4 cells. Type of series: functional.
Series [10] is described as follows: Half life of the compound in phosphate buffer of pH 2.0 by HPLC-UV analysis. Type of series: physicochemical.
A short description of series [11]: Aqueous solubility of the compound at phosphate buffer of pH 2.0 after overnight incubation by HPLC-UV analysis. It counts as physicochemical.
A short description of series [12]: Aqueous solubility of the compound in water at pH 7.0 after overnight incubation by HPLC-UV analysis. It counts as physicochemical.
A short description of series [13]: Aqueous solubility of the compound in phosphate buffer of pH 7.4 after overnight incubation by HPLC-UV analysis. Type of series: physicochemical.
Series [14] in a line: Half life of the compound in phosphate buffer of pH 7.4 by HPLC-UV analysis. Type of series: physicochemical.
Series [15] is described as follows: Solubility of the compound. It counts as physicochemical.

Data on 17 compounds can be found in ChEMBL document CHEMBL4330114 (Bioorg Med Chem, 2019).

SMILES strings stand for the structures. In brackets after ≈: the same amount, converted by molar mass.

Regarding `N#Cc1cc(Cl)cc(Oc2c(C(F)(F)F)ccn(CC(=O)Nc3ccc(C(F)(F)F)cc3)c2=O)c1`, the EC50 – broadly, the concentration at which the effect is half-maximal – in [1] is 12.3 µM; in [4] it was greater than 82.3 µM; in [8], greater than 82.3 µM. The selectivity ratio in series [2] was less than 1; in series [3], less than 1; in series [7], 7. For the same compound, the IC50 – broadly, the concentration at which inhibition is half-maximal – in series [5] came out at 30.1 µM. Besides, in series [6], the CC50 (commonly the concentration giving 50% cytotoxicity) at 120 h worked out at 82.3 µM.
With `N#Cc1cc(Cl)cc(Oc2c(C(F)(F)F)ccn(CC(=O)Nc3ncn[nH]3)c2=O)c1`, the EC50 is 0.0548 µM in series [1], 0.196 µM in series [4] and 182 µM in series [8]. The selectivity ratio is greater than 2 in [2], greater than 1450 in series [3] and greater than 5200 in series [7]. Besides, the IC50 in [5] turned out to be 0.522 µM. In series [6], the CC50 at 120 h is greater than 285 µM. Further, the “Ratio EC50” value in series [9] came to 234.
For `N#Cc1cc(Cl)cc(Oc2c(C(F)(F)F)ccn(CC(=O)Nc3ccc(F)cc3)c2=O)c1`, the EC50 is 188 µM in [1], greater than 269 µM in series [4] and greater than 269 µM in series [8]. For the same compound, the figures for the selectivity ratio in series [2], in series [3] and in series [7] were 1, 1 and greater than 1, respectively. The IC50 in [5] was found to be 72 µM. The CC50 at 120 h in series [6] is greater than 269 µM.
As to `Cn1c(Cn2ccc(C(F)(F)F)c(Oc3cc(Cl)cc(C#N)c3)c2=O)nn(COP(=O)(O)O)c1=O`, the results for the EC50 in series [1], in series [4] and in series [8] were 0.262 µM, greater than 234 µM and greater than 234 µM, respectively. Further, the figures for the selectivity ratio in series [2], in series [3] and in [7] were 1, 1 and greater than 893, respectively. Moreover, the half-life in series [10] and in [14] was greater than 24 h throughout. For the same compound, the solubility (in general, the dissolved amount per volume that the medium holds) stood at 4220 µg/mL (≈ 7870 µM) in series [11], 4560 µg/mL (≈ 8510 µM) in series [12] and 5190 µg/mL (≈ 9680 µM) in [13]. Further, the IC50 in series [5] was found to be 0.93 µM. In [6], the CC50 at 120 h is greater than 234 µM.
Turning to `N#Cc1cc(Cl)cc(Oc2c(C(F)(F)F)ccn(CC(=O)Nc3cn[nH]c3)c2=O)c1`, the EC50 in [1] is 0.0595 µM; in [4], 0.343 µM; in series [8] it was no less than 33.4 µM. The selectivity ratio was no more than 1 in [2], 134 in [3] and 775 in series [7]. For the same compound, the IC50 in series [5] stood at 1.25 µM. Moreover, the CC50 at 120 h in series [6] amounted to 46.1 µM.
As to `N#Cc1cc(Cl)cc(Oc2c(C(F)(F)F)ccn(CC(=O)Nc3ccn[nH]3)c2=O)c1`, the EC50 is 6.34 µM in [1], greater than 41.9 µM in series [4] and 134 µM in [8]. Further, the figures for the selectivity ratio in series [2], in [3] and in series [7] were 1, 1 and no less than 7, respectively. Also, the IC50 in series [5] came out at 19.4 µM. The CC50 at 120 h in [6] is no less than 41.9 µM.
Regarding `CS(=O)(=O)c1ccc(NC(=O)Cn2ccc(C(F)(F)F)c(Oc3cc(Cl)cc(C#N)c3)c2=O)cc1`, the values for the EC50 in series [1], in series [4] and in series [8] were 42.1 µM, greater than 112 µM and greater than 112 µM, respectively. The selectivity ratio in [2] is less than 1; in series [3], less than 1; in [7] it was 3. Further, the IC50 in series [5] amounted to 1 µM. Moreover, the CC50 at 120 h in series [6] stood at 112 µM.
Regarding `N#Cc1cc(Cl)cc(Oc2c(C(F)(F)F)ccn(CC(=O)Nc3ccc([N+](=O)[O-])cc3)c2=O)c1`, the EC50 is 1.4 µM in series [1], greater than 254 µM in series [4] and 145 µM in series [8]. Besides, the selectivity ratio in series [2] is greater than 2; in [3], 1; in [7], greater than 181. In addition, the IC50 in series [5] came to 1.27 µM. Besides, the CC50 at 120 h in [6] was greater than 254 µM.
As to `N#Cc1cc(Cl)cc(Oc2c(C(F)(F)F)ccn(CC(=O)Nc3cccnc3)c2=O)c1`, the EC50 in [1], in series [4] and in [8] was greater than 111 µM throughout. The selectivity ratio in series [2], in series [3] and in series [7] was less than 1 throughout. Moreover, the IC50 in [5] was 133 µM. Also, the CC50 at 120 h in [6] was 111 µM.
With `N#Cc1cc(Cl)cc(Oc2c(C(F)(F)F)ccn(CC(=O)Nc3ccc(Br)cc3)c2=O)c1`, the EC50 in series [1], in series [4] and in series [8] was greater than 87.9 µM in each case. The selectivity ratio in series [2], in series [3] and in series [7] was less than 1 each time. The IC50 in [5] is 92.5 µM. For the same compound, the CC50 at 120 h in series [6] was determined as 87.9 µM.
`CC(C)OC(=O)OCn1nc(Cn2ccc(C(F)(F)F)c(Oc3cc(Cl)cc(C#N)c3)c2=O)n(C)c1=O`: the EC50 in series [1] is 1.22 µM; in series [4], greater than 231 µM; in series [8], 152 µM. The selectivity ratio was greater than 2 in series [2], 1 in series [3] and greater than 189 in series [7]. In addition, the solubility in [11] worked out at 14 µg/mL (≈ 25.8 µM); in [12] it was 27 µg/mL (≈ 49.8 µM); in series [13], 29 µg/mL (≈ 53.5 µM). Further, the IC50 in series [5] stood at 2.11 µM. Also, the CC50 at 120 h in series [6] was greater than 231 µM.
For `N#Cc1cc(Cl)cc(Oc2c(C(F)(F)F)ccn(CC(=O)Nc3ccncc3)c2=O)c1`, the EC50 was 32.4 µM in [1], greater than 133 µM in [4] and greater than 133 µM in [8]. Besides, the selectivity ratio was less than 1 in series [2], less than 1 in [3] and 4 in series [7]. Besides, the IC50 in series [5] turned out to be 32.5 µM. Also, the CC50 at 120 h in series [6] stood at 133 µM.
Consider `N#Cc1cc(Cl)cc(Oc2c(C(F)(F)F)ccn(CC(=O)Nc3cnccn3)c2=O)c1`, for which the results for the EC50 in series [1], in series [4] and in series [8] were 29.4 µM, greater than 183 µM and greater than 183 µM, respectively. For the same compound, the selectivity ratio in [2] is 1; in [3], 1; in series [7], no less than 6. Also, the IC50 in series [5] was 63.4 µM. For the same compound, the CC50 at 120 h in series [6] is no less than 183 µM.
Consider `Cn1c(Cn2ccc(C(F)(F)F)c(Oc3cc(Cl)cc(C#N)c3)c2=O)n[nH]c1=O` [DORAVIRINE], for which the EC50 in series [1] stood at 0.013 µM; in [4], 0.015 µM; in [8] it was 142 µM. Moreover, the IC50 in series [5] amounted to 0.019 µM. In addition, the CC50 at 120 h in series [6] is greater than 294 µM.
With `O=C1Nc2ccc(Cl)cc2[C@@](C#CC2CC2)(C(F)(F)F)O1` [EFAVIRENZ], the EC50 stood at 0.007 µM in series [1] and 0.244 µM in series [4]. For the same compound, the CC50 at 120 h in series [6] was greater than 3.16 µM.
With `Cc1cc(C#N)cc(C)c1Oc1nc(Nc2ccc(C#N)cc2)nc(N)c1Br` [ETRAVIRINE], the solubility in series [15] was less than 1 µg/mL.
Regarding `Nc1ccn([C@@H]2CS[C@H](CO)O2)c(=O)n1` [LAMIVUDINE], the EC50 in series [1] was 12.8 µM; in [4] it was 7.77 µM; in series [8] it was no less than 17.1 µM. Further, the selectivity ratio in series [3] was greater than 11; in series [7], greater than 7. Moreover, in [6], the CC50 at 120 h is greater than 87.3 µM.
